Earlier results in patent US20020160961A1, “Compositions for the treatment of the catabolic state of prolonged critical illness” (priority 1999, published 2002).

Tested on: pulsatile TSH secretion
Details: TRH infused together with GHRP-2; catabolic state of prolonged critical illness

## NC(=O)[C@@H]1CCCN1C(=O)[C@H](Cc1cnc[nH]1)NC(=O)[C@@H]1CCC(=O)N1 [TRH, thyrotropin-releasing hormone]
  pulsatile TSH secretion: increased pulsatile TSH secretion
